The values below come from ChEMBL document CHEMBL3576838, “Synthesis and in vitro and in vivo biological evaluation of substituted nitroquinoxalin-2-ones and 2,3-diones as novel trichomonacidal agents” (Eur J Med Chem, 2015).

In data set [1] the test system is Trichomonas vaginalis. In words: Trichomonicidal activity against Trichomonas vaginalis JH31A#4 trophozite assessed as inhibition of parasite growth at 300 uM after 24 hrs by resazurin redox dye based fluorimetric microtiter method. It counts as functional. The following applies: JH31A#4, 24 h. (Resazurin is reduced to fluorescent resorufin, in cell work by metabolically active cells.)

Data set [2] deals with Trichomonas vaginalis. In words: Trichomonicidal activity against Trichomonas vaginalis JH31A#4 trophozite assessed as inhibition of parasite growth at 37.5 uM after 24 hrs by resazurin redox dye based fluorimetric microtiter method. It counts as functional. The following applies: JH31A#4, 24 h.
For data set [3], the system named is Trichomonas vaginalis. In words: Trichomonicidal activity against Trichomonas vaginalis JH31A#4 trophozite assessed as inhibition of parasite growth at 150 uM after 24 hrs by resazurin redox dye based fluorimetric microtiter method. It counts as functional. The note with it: JH31A#4, 24 h.
Data set [4] is described as follows: Selectivity index, ratio of CC50 for African green monkey Vero cells to IC50 for Trichomonas vaginalis JH31A#4 trophozite. It counts as functional.
For data set [5], the system named is Trichomonas vaginalis. In words: Trichomonicidal activity against Trichomonas vaginalis JH31A#4 trophozite assessed as inhibition of parasite growth at 18.75 uM after 24 hrs by resazurin redox dye based fluorimetric microtiter method. The note with it: JH31A#4, 24 h. It counts as functional.
The test system of data set [6] is Trichomonas vaginalis. In words: Trichomonicidal activity against Trichomonas vaginalis C-1:NIH trophozoites infected in NMRI mouse assessed as reduction of pathogenicity at 100 mg/kg, po administered for 7 days from day 3 to day 10 post-infection measured at day 15 post-infection. It counts as functional.
Data set [7] relates to Trichomonas vaginalis. In words: Trichomonicidal activity against Trichomonas vaginalis C-1:NIH trophozoites infected in NMRI mouse assessed as reduction of pathogenicity at 50 mg/kg, po administered for 7 days from day 3 to day 10 post-infection measured at day 15 post-infection. It counts as functional.
Data set [8] has as its system Trichomonas vaginalis. In words: Trichomonicidal activity against Trichomonas vaginalis JH31A#4 trophozite assessed as inhibition of parasite growth at 9.37 uM after 24 hrs by resazurin redox dye based fluorimetric microtiter method. The class given is functional. The note with it: JH31A#4, 24 h.
Data set [9] has as its system Trichomonas vaginalis. In words: Trichomonicidal activity against Trichomonas vaginalis JH31A#4 trophozite assessed as inhibition of parasite growth at 75 uM after 24 hrs by resazurin redox dye based fluorimetric microtiter method. It counts as functional. The following applies: JH31A#4, 24 h.
Data set [10] has as its system Mus musculus. Nature of the data set: Toxicity against NMRI mouse infected with Trichomonas vaginalis C-1:NIH trophozoites assessed as animal death at 50 to 100 mg/kg, po administered for 7 days from day 3 to day 10 post-infection measured at day 15 post-infection. It counts as organism-based. The following applies: in vivo, 168 h.
Data set [11] has as its system Vero. In words: Cytotoxicity against African green monkey Vero cells at 300 uM after 24 hrs by resazurin redox dye based fluorimetric microtiter method. The class given is cell-based. The note with it: chlorocebus sabaeus.
A short description of data set [12]: Cytotoxicity against African green monkey Vero cells assessed as inhibition of cell growth after 24 hrs by resazurin redox dye based fluorimetric microtiter method. The note with it: chlorocebus sabaeus.
The subject of data set [13] is Trichomonas vaginalis. In words: Trichomonicidal activity against Trichomonas vaginalis JH31A#4 trophozite assessed as inhibition of parasite growth at 10 ug/ml after 24 hrs by resazurin redox dye based fluorimetric microtiter method. The class given is functional. The note with it: JH31A#4, 24 h, read-out: GI.
The test system of data set [14] is Trichomonas vaginalis. Nature of the data set: Trichomonicidal activity against Trichomonas vaginalis JH31A#4 trophozite assessed as inhibition of parasite growth after 24 hrs by resazurin redox dye based fluorimetric microtiter method. It counts as functional, organism-based. The following applies: JH31A#4, 24 h.
Data set [15] concerns Trichomonas vaginalis. Nature of the data set: Trichomonicidal activity against Trichomonas vaginalis C-1:NIH trophozoites infected in NMRI mouse assessed as reduction of pathogenicity at 25 mg/kg/day, po administered for 7 days from day 3 to day 10 post-infection measured at day 15 post-infection. The class given is functional.

The inhibition is how much of the control response was suppressed. By inhibition in vivo is commonly meant the change of the read-out against control, counted positive when it falls. As usually defined, the CC50 is the concentration that lowers cell viability or growth by half. One may read the IC50 as the concentration at which inhibition is half-maximal. On to `Cl.O=C1CN(CCCN2CCCCC2)c2ccc([N+](=O)[O-])cc2N1`, for which the inhibition at 300 µM in data set [1] is 100%. Besides, the inhibition at 37.5 µM in [2] was 70.3%. The inhibition at 150 µM in data set [3] worked out at 98.9%. Further, the “Ratio CC50/IC50” value in [4] is on record as greater than 10. The inhibition at 18.75 µM in data set [5] was 58.4%. For the same molecule, the inhibition in vivo at 100 mg/kg in [6] was 46.1%. Also, the inhibition in vivo at 50 mg/kg in [7] is 50.7%. Also, in [8], the inhibition at 9.37 µM was found to be 24.2%. Also, the inhibition at 75 µM in data set [9] was determined as 82.4%. The Activity entry was “Non-toxic” in data set [10] and 3.26% in [11]. Further, in data set [12], the CC50 at 24 h was greater than 300 µM. The inhibition of growth at 10 µg/mL in data set [13] was determined as 7%. In addition, the IC50 in data set [14] was 18.3 µM.
In the case of `Cc1ncc([N+](=O)[O-])n1CCO` [METRONIDAZOLE], in data set [1], the inhibition at 300 µM worked out at 100%. Also, in [2], the inhibition at 37.5 µM was 99.4%. Also, the inhibition at 150 µM in data set [3] stood at 100%. The “Ratio CC50/IC50” value in data set [4] is greater than 10. The inhibition at 18.75 µM in data set [5] came to 96%. In addition, the inhibition at 9.37 µM in data set [8] came out at 82.7%. For the same molecule, in data set [9], the inhibition at 75 µM was found to be 100%. The inhibition in vivo at 25 mg/kg/day in [15] came to 94%. In [11], this molecule gave an Activity of 0%. In addition, the CC50 at 24 h in data set [12] is greater than 600 µM. The IC50 in data set [14] was found to be 4.16 µM.
As to `CN(C)CCN1CC(=O)N(C)c2cc([N+](=O)[O-])ccc21`, the inhibition at 300 µM in data set [1] was 100%. In data set [2], the inhibition at 37.5 µM worked out at 20.4%. For the same molecule, the inhibition at 150 µM in data set [3] worked out at 99.9%. Moreover, the “Ratio CC50/IC50” value in data set [4] is given as 12.77. Besides, in [5], the inhibition at 18.75 µM is 6.7%. In addition, the inhibition at 9.37 µM in [8] worked out at 1.36%. Further, the inhibition at 75 µM in data set [9] amounted to 73.9%. The molecule further had an Activity in data set [11] of 17.29%. Besides, in data set [12], the CC50 at 24 h was found to be 648 µM. In addition, the inhibition of growth at 10 µg/mL in [13] is 7%. In [14], the IC50 turned out to be 50.7 µM.
